From patent EP0075626A1, “Novel rutin nona- and deca(H-)sulfate salts, methods of preparing novel salts, and use of novel salts of complement inhibitors” (AMERICAN CYANAMID COMPANY, priority 1981, dated 1983)

Target: T1, activated complement protein Cl (Homo sapiens, UniProt P09871)
T1 sequence (P09871 16-437 limits assumed): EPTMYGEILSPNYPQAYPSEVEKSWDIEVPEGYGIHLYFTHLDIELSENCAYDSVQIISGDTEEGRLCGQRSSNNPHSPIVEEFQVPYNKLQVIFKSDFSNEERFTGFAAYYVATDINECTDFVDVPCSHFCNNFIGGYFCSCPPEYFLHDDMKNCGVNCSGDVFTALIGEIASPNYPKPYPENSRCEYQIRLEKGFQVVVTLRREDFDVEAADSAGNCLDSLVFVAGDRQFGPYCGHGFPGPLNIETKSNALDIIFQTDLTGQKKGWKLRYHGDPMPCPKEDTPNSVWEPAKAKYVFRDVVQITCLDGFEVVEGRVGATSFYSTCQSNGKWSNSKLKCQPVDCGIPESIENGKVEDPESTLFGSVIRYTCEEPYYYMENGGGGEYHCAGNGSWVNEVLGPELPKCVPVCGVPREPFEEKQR
T1 sequence (P09871 438-688 limits assumed): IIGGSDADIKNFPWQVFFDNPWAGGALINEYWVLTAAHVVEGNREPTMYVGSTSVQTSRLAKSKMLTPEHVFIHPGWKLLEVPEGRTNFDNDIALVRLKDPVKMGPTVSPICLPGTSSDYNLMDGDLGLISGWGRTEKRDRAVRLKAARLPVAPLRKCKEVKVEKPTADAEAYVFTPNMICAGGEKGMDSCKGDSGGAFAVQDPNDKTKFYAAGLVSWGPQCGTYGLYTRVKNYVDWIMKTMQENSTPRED
Test: Test Code 026 (C 1 inhibitor): protection of fluid phase C2 from activated C1 in the presence of C4, serial dilution assay
Type: biochemical
Details: for times as active as the mixture of hexa- through deca- salts produced by Example 2 of European Application No. 13470A: Test Code 026, worked out from well numbers, two-fold serial dilutions; for In Vitro Activity Test Code 026: activity in wells, two-fold serial dilution assay, the higher the well number the higher the activity
From the text: An active inhibitor protects C2 from Cl and C4.
This test measures activity in wells by a serial dilution assay. The higher the well number the higher is the activity. The serial dilutions are two-fold, so that in the test shown above the rutin deca(H-)sulfate sodium salt in accordance with this invention is 16 times as active as the mixture of hexa- through deca- salts produced by Example 2 of European Application No. 13470A, whilst the rutin nona(H-)sulfate sodium salt in accordance with this invention is 8 times as active as the aforesaid mixture.

| times as active as the mixture of hexa- through deca- salts produced by Example 2 of European Application No. 13470A | In Vitro Activity Test Code 026 | Substance |
| --- | --- | --- |
| 16 times | +11 | Rutin deca (H-sulfate) Sodium Salt [Rutin deca(H-)sulfate sodium salt] |
| 8 times | +10 | Rutin nona (H-sulfate) Sodium Salt [Rutin nona(H-)sulfate sodium salt] |
